One block for each molecule: values may come before it.
Columns and labels:
[1] = Partition equilibrium in the presence of surfactants (TBA, CTA, TMA); format: physicochemical
From the text: The presence of chemical compounds usually added in the chain of unit operations of oil extraction and production, such as demulsifiers and surfactants, can affect the partition equilibrium of species in this water/oil system. In order to understand the extent of this effect, as well as discern the relevance of the chemical structure on this effect, the following items were chosen: • Dissolvan 961 (Clariant), composed of oil hydrocarbons (CAS 918-811-1) and ethanol (CAS 64-17-5); • Dissolvan 974 (Clariant), composed of EO-PO block polymer poly adducts and Bisphenol-A-diglycidyl ether (CAS 68123-18-2) and ethanol (CAS 64-17-5); • Tetrabutylammonium chloride (CAS 1112-67-0), 97% purity; • Cetyltrimethylammonium chloride (CAS 112-02-7), 25% in water; and • Trimethylammonium chloride (CAS 593-81-7), 98% purity.
For this study, the experiments (in triplicate) used between 100.0 and 1000.0 mg·L^−1 of each compound, comparing the results with control tests (absence of the component), all with constant salinity at 3.5% (m·v^−1). Finally, neutralization titration with a standardized NaOH titrant solution was used to determine the effect on the partition equilibrium for four acidic species (the same as in the other examples, except for dicyclohexylacetic acid).
Considering the study with surfactants, the (individual) addition of three species to the control system was evaluated (tetrabutylammonium chloride (TBA), tetramethylammonium chloride (TMA) and cetyltrimethylammonium chloride (CTA)). For this purpose, the surfactants have distinct chemical structures, namely the size of the side chain, and their eventual effect on the partition equilibrium of the acidic species was evaluated.

[2] = Partition equilibrium in reactor pressurized with CO2, in presence and absence of alkalinity (NaHCO3, Na2CO3), back titration
Description: In the initial tests, 100 mL of heptol and 300 mL of water (with or without salinity) were used, with the addition of acidic species in the organic phase, in order to verify migration to the aqueous phase. As a rule, the system was kept under agitation at 500 rpm for 8 min, followed by rest for 10 min and, finally, collection of 50.0 mL aliquots of the aqueous phase for titrimetric analysis.
A 316 stainless steel alloy reactor (Parr®) (capacity for 600 mL and operational up to 20 MPa pressure) was used. For this purpose, a temperature range between 25° C. and 80° C. and pressure between 0.1 MPa and 1.0 MPa were used, and the reactor was pressurized with CO2. Thus, the results were compared (in terms of migration of the acidic species (%, mol) by means of back titrations) and the influence of pressure and temperature on the partition was estimated, as well as possible synergistic effects with the sources of alkalinity added to the aqueous phase.

[3] = Control experiments: availability of the species in alkaline aqueous medium without using the reactor; format: physicochemical; conditions: acid solubilized directly in aqueous phase, no reactor
Description: Previously, the back titration procedure was internalized and optimized (Example 1), ensuring that the reproducibility of the measurements was adequate (standard deviation values below 10%, for example) and that the recoveries were close to what was expected based on the purity of the reagents (i.e., close to or above 90%). […] Control experiments were performed (measuring the availability of the species in an aqueous medium, without using the reactor) by solubilizing the organic acid directly in the aqueous phase and titrating a 10.0 mL aliquot; the same way, experiments were performed in the reactor based on the standardization of heptol and salinity already discussed (3.5%).

[4] = Partition equilibrium under the influence of salinity (NaCl), glass reactor, neutralization titration; format: physicochemical; conditions: Salinity 0 (%, m · m^−1) NaCl
[5] = Partition equilibrium with addition of calcium and strontium salts to the aqueous phase; format: physicochemical; conditions: for Effect of strontium ions on migration to the aqueous phase: strontium 400-2600 mg·L^−1
Description: The addition of salts to the reaction system is of fundamental importance when one intends to mimic field conditions. In this sense, in addition to continuing the study of the salinity effect (Example 4), the insertion of salts containing Ca^2+ and Sr^2+ ions, known to be present in seawater, was tested. To this end, the projects were based on the literature (Zheng, J. et al. Offshore produced water management: A review of current practice and challenges in harsh/Arctic environments. Mar. Pol. Bul. 2016, 104, 7-19) and four concentrations of each of the two ions were evaluated (400.0, 1200.0, 2600.0 and 9000.0 mg·L^−1), maintaining salinity at 3.5% (m·v^−1).
In short, the experimental results were generated in triplicate, using 99% NaCl to add salinity to the aqueous fraction and PA calcium chloride and PA strontium chloride to add calcium and strontium, respectively.
The addition of calcium and strontium to the reaction system, in the form of salts, aims at mimicking the real scenario in which both species are present (regardless of the salinity of the medium), especially in the well condition. This study aimed at understanding the effect (on the migration of acids to the organic phase) of this ion in the system also at concentrations higher than 10 mM. Finally, the experiments (in triplicate) with divalent strontium ions followed the same rationale.

[6] = Partition equilibrium in the presence of demulsifiers (Dissolvan 961, Dissolvan 974)
[7] = Partition equilibrium under the influence of salinity (NaCl), glass reactor, neutralization titration; format: physicochemical
Description: The variation in salinity (and its effect on acidic species) is due to the large variation in salinity found between the portions of bottom-hole water, middle-well water and surface water. Thus, systems with salinity (i.e., NaCl) between 3.5 and 30% (m·v^−1) were tested in a glass reactor, and neutralization titration was performed (in triplicate analysis), as previously described. Furthermore, the experimental results were generated in triplicate, using 99% NaCl (Sigma-Aldrich) with five acidic species.

[8] = Calcium 400 mg · L^−1, salinity 3.5%
[9] = Calcium 1200 mg · L^−1, salinity 3.5%
[10] = Calcium 2600 mg · L^−1, salinity 3.5%
[11] = Strontium 400 mg · L^−1, salinity 3.5%
[12] = Strontium 1200 mg · L^−1, salinity 3.5%
[13] = Strontium 2600 mg · L^−1, salinity 3.5%
[14] = Salinity 3.5 (%, m · m^−1) NaCl
[15] = Salinity 18.0 (%, m · m^−1) NaCl
[16] = Salinity 30.0 (%, m · m^−1) NaCl

Migration ([1]; Absence of surfactant, salinity 3.5%): 10.4 %, mol
Migration ([1]; CTA100 (cetyltrimethylammonium chloride 100 mg · L^−1)): 11.5 %, mol
Migration ([1]; CTA1000 (1000 mg · L^−1)): 52.6 %, mol
Migration ([1]; TBA100 (tetrabutylammonium chloride 100 mg · L^−1)): 22.0 %, mol
Migration ([1]; TBA1000 (1000 mg · L^−1)): 21.6 %, mol
Migration ([1]; TMA100 (trimethylammonium chloride 100 mg · L^−1)): 9.4 %, mol
Migration ([1]; TMA1000 (1000 mg · L^−1)): 9.1 %, mol
Increase in migration to the aqueous phase with CTA ([1]; surfactant CTA, 1000 mg·L^−1): ~500%
Increase in the tendency to migrate to the aqueous phase with TBA ([1]; surfactant TBA, noticeable from 100 mg·L^−1): 100%
Effect of TMA on partition equilibrium ([1]; surfactant TMA): no observable effect
Migration ([2]; 25° C. and 1.0 MPa CO2, no alkalinity): did not generate quantifiable results
Migration ([2]; Na2CO3 + NaHCO3, 25° C. and 0.1 MPa): 100.0 % mol
Migration ([2]; Na2CO3 + NaHCO3, 25° C. and 1.0 MPa CO2): 100.0 % mol
Migration ([2]; Na2CO3 + NaHCO3, 80° C. and 1.0 MPa CO2): 100.0 % mol
Migration ([2]; NaHCO3, 25° C. and 0.1 MPa): 100.0 % mol
Migration ([2]; NaHCO3, 25° C. and 1.0 MPa CO2): 100.0 % mol
Migration ([2]; NaHCO3, 80° C. and 1.0 MPa CO2): 100.0 % mol
Migration trend in the presence of alkalinity individually and together with pressure/temperature ([2]; NaHCO3 or Na2CO3 + NaHCO3, 0.1 or 1.0 MPa, 25 or 80 °C): 100%
Migration ([2]; Reference (heptol + 3.5% NaCl), no alkalinity): 10.3 % mol
Availability (reference value) ([3]; Na2CO3 + NaHCO3 (3.48×10^−5 mol)): 100.0 % mol
Availability (reference value) ([3]; NaHCO3 (3.45×10^−5 mol)): 100.0 % mol
Migration [4]: 24.4 %, mol
Migration ([5]; Absence of ions, salinity 3.5%): 10.4 %, mol
Migration [5, 8]: 5.5 %, mol
Migration [5, 9]: 4.7 %, mol
Migration [5, 10]: 3.4 %, mol
Migration [5, 11]: 4.4 %, mol
Migration [5, 12]: 5.3 %, mol
Migration [5, 13]: 4.8 %, mol
Effect of calcium ion on migration to the aqueous phase ([5]; calcium up to the maximum study concentrations): no variation in migration
Effect of strontium ions on migration to the aqueous phase [5]: decreased migration
Increase in migration to the aqueous phase with demulsifier ([6]; 50 mg·L^−1 of D961): approximately 100%
Migration ([6]; Absence of ions (no demulsifier), salinity 3.5%): 10.4 %, mol
Migration ([6]; D961 50 mg · L^−1): 21.0 %, mol
Migration ([6]; D961 100 mg · L^−1): 21.0 %, mol
Migration ([6]; D961 1000 mg · L^−1): 23.0 %, mol
Migration ([6]; D974 50 mg · L^−1): 18.0 %, mol
Migration ([6]; D974 100 mg · L^−1): 16.0 %, mol
Migration ([6]; D974 1000 mg · L^−1): 14.6 %, mol
Salting out effect (reduction in the number of moles contained in the aqueous phase) ([7]; 30% (m·v^−1) NaCl versus tests without salinity): ~38%
Migration [7, 14]: 13.2 %, mol
Migration [7, 15]: 15.4 %, mol
Migration [7, 16]: 15.4 %, mol
SMILES: O=C(O)CCCCc1ccccc1 [5-Phenylpentanoic Acid, 5-phenylpentanoic acid]

Migration [4]: 22.0 %, mol
Migration ([5]; Absence of ions, salinity 3.5%): 22.1 %, mol
Migration [5, 8]: 20.7 %, mol
Migration [5, 9]: 19.6 %, mol
Migration [5, 10]: 31.8 %, mol
Migration [5, 11]: 15.8 %, mol
Migration [5, 12]: 20.0 %, mol
Migration [5, 13]: 21.5 %, mol
Migration ([5]; before addition of calcium): 22 % (m·v^−1)
Effect of strontium ions on migration to the aqueous phase [5]: no effect
Migration to aqueous medium, approximate level over the salinity study ([7]; 0-30% NaCl): around 20%
Effect of the addition of salinity on migration ([7]; 3.5-30% NaCl, 95% reliability): no significant effect
Migration [7, 14]: 18.1 %, mol
Migration [7, 15]: 19.9 %, mol
Migration [7, 16]: 21.5 %, mol
SMILES: O=C(O)C(C1CCCCC1)C1CCCCC1 [Dicyclohexylacetic Acid, dicyclohexylacetic acid]

— patent publication US20250231157A1, “METHOD FOR DETERMINING THE PARTITION OF NAPHTHENIC ACIDS FROM A PRODUCTION WATER MIMICKING SYSTEM AND MIMICKING SYSTEM” (PETRÓLEO BRASILEIRO S.A. – PETROBRAS, priority 2023, published 2025)
